In article PMC3498355, “Isomeric Mono-, Di-, and Tri-Bromobenzo-1H-Triazoles as Inhibitors of Human Protein Kinase CK2α” (PLoS ONE, 2012):
Read-outs that look alike come from different tables or passages of the source.

How the values were obtained:
protein kinase CK2 = details: cited from earlier work
[1] = set-up: method as in PMID 20734498, PMID 22632480; details: cited from earlier work; for Cw (aqueous solubility): experimental
[2] = set-up: method as in PMID 20734498, PMID 22632480; details: experimental, aqueous medium; cited from earlier work
[3] = set-up: method as in PMID 20734498, PMID 22632480; details: ab initio, calculated previously; cited from earlier work
[4] = set-up: method as in PMID 20734498, PMID 22632480; details: ab initio, calculated previously; cited from earlier work; remark: listed apart in the source
human CK2α = target: T1, human CK2α (Homo sapiens, UniProt P68400); test: CK2α activity, P81 filter isotopic assay (inhibition, IC50); type: biochemical
T1 construct: CK2α was from KinaseDetect Aps; purchased KinaseDetect Aps
T1 sequence (P68400 whole entry): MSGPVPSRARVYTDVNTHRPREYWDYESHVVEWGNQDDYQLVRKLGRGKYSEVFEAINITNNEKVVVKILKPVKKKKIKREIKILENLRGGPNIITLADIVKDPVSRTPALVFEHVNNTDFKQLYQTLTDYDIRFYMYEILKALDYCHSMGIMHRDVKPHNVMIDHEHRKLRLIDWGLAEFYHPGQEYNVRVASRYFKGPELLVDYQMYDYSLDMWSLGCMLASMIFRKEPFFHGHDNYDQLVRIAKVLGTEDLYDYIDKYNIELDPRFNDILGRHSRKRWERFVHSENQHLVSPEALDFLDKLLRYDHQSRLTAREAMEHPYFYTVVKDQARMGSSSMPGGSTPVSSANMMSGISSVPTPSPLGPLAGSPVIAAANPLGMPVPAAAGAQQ
Procedure: CK2α activity was monitored using the P81 filter isotopic assay. The reaction mixture contained 20 mM Tris-HCl, pH 7.5, 20 mM MgCl2, 20 µM DTT, 20 µM peptide substrate, 0.5 mM β-glycerol, 0.1 mM EGTA, 10 µM ATP (200–300 cpm/pmol) and CK2α (0.4 µg/µl). The reaction was initiated with enzyme in a total volume of 50 µl, and incubated at 30°C for 20 min. 10 µl of a reaction mixture was spotted onto a P81 filter. The filter papers were washed 3× with 0.6% phosphoric acid, once with 95% ethanol, then counted in a scintillation counter (Canberra-Packard).
ATP, and Cmax and Cmin are the asymptotic values.

[5] = acidic solution, compared with neutral pH
[6] = 10 µM ATP, 20 µM peptide substrate, pH 7.5, 30°C, 20 min

| IC50 (human CK2α; [6]) | SMILES | Cw (aqueous solubility) [1] | pKa (triazole proton dissociation) [2] | ΔGsolv (free energy of solvation of the anionic form) [3] | ΔGdiss (free energy of proton dissociation) [4] | also measured |
| --- | --- | --- | --- | --- | --- | --- |
| 0.38 ± 0.02 µM | Brc1cc2[nH]nnc2c(Br)c1Br [4,5,6-Br3Bt] | 62.3 µM | 5.91 | -40.9 kcal/mol | 52.3 kcal/mol | solubility (in words) [1, 5]: visibly higher; solubility (in words) ([1]; neutral pH): as low as for TBBt |
| 10 ± 2.2 µM | Brc1cc(Br)c2nn[nH]c2c1 [4,6-Br2Bt] | 234 µM | 6.38 | -45.5 kcal/mol | 54.2 kcal/mol | – |
| 72 ± 11 µM | Brc1ccc(Br)c2[nH]nnc12 [4,7-Br2Bt] | 1980 µM | 5.84 | -48.0 kcal/mol | 53.4 kcal/mol | – |
| 10.6 ± 0.9 µM | Brc1ccc2[nH]nnc2c1Br [4,5-Br2Bt] | 499 µM | 6.49 | -46.8 kcal/mol | 54.3 kcal/mol | – |
| 119 ± 10 µM | Brc1cccc2[nH]nnc12 [4-BrBt] | 3870 µM | 7.08 | -53.3 kcal/mol | 56.7 kcal/mol | – |
| 26 ± 3 µM | Brc1ccc2nn[nH]c2c1 [5-BrBt] | 2770 µM | 7.55 | -50.7 kcal/mol | 58.1 kcal/mol | – |
| 0.56 ± 0.02 µM | Brc1cc2nn[nH]c2cc1Br [5,6-Br2Bt] | 231 µM | 6.93 | -44.4 kcal/mol | 55.8 kcal/mol | solubility (in words) [1, 5]: visibly higher; solubility (in words) ([1]; neutral pH): as low as for TBBt |

More lines, now with the values behind:

| SMILES | IC50 (human CK2α; [6]) | Cw (aqueous solubility) [1] | pKa (triazole proton dissociation) [2] | ΔGsolv (free energy of solvation of the anionic form) [3] | ΔGdiss (free energy of proton dissociation) [4] | also measured |
| --- | --- | --- | --- | --- | --- | --- |
| Clc1c(Cl)c(Cl)c2[nH]nnc2c1Cl [4,5,6,7-tetrachloro-benzotriazole] | – | – | – | – | – | activity against CK2 (in words) (protein kinase CK2): moderate activity |
| Cc1c(C)c(C)c2[nH]nnc2c1C [4,5,6,7-tetramethyl-benzotriazole] | – | – | – | – | – | activity against CK2 (in words) (protein kinase CK2): low, but detectable, activity |
| c1ccc2[nH]nnc2c1 [Bt, benzotriazole, reference compound] | > 2000 µM | 196000 µM | 8.56 | -59.9 kcal/mol | 59.5 kcal/mol | inhibitory activity against CK2α (in words) (human CK2α): totally inactive; IC50 (human CK2α; as stated in legend of Figure 5): > 2000 µM |
| Brc1cc(Br)c2[nH]nnc2c1Br [4,5,7-Br3Bt] | 5.8 ± 0.9 µM | 1040 µM | 5.38 | -41.9 kcal/mol | 52.2 kcal/mol | – |
| Brc1c(Br)c(Br)c2[nH]nnc2c1Br [TBBt, 4,5,6,7-tetrabromobenzotriazole, reference compound] | – | 218 µM | – | -38.0 kcal/mol | 49.7 kcal/mol | solubility (in words) ([1]; neutral form of the ligand): very poorly soluble |
| Brc1c(Br)c(Br)c2[nH]cnc2c1Br [TBBz, 4,5,6,7-tetrabromobenzimidazole] | – | – | – | – | – | Ki (protein kinase CK2): low µM and sub-µM range; activity relative to TBBt (fold less active) (protein kinase CK2): 4 fold |
